# Source: patent publication US20070225316A1, “Methods and compositions for treating schizophrenia” (priority 2006, published 2007)
# Where a name gives a salt, the structure may show the parent alone.
# Test system: NMDA receptors (NMDA-induced currents)
# Assay: Patch clamp (whole cell) registration of NMDA-induced currents in cultured rat hippocampus neurons
# Assay type: cell-based
# Conditions: for Change of the blocking effect of MK-801 on NMDA-induced currents after preliminary application of the substance: result in words
# Method: Experiments were carried out by the patch clamp method on freshly isolated neurons of a rat brain cortex or on cultured rat hippocampus neurons. Neurons for cultivation were obtained from the hippocampus of neonatal rats (1-2 days) by the method of trypsinization followed by pipetting. Cells suspended in culture medium were placed in 3 mL quantities into the wells of a 6-well planchette (Nunc) or into Petri dishes, in which glasses coated with poly-L-lysine had first been placed. The cell concentration as a rule was […]. The culture medium consisted of Eagle's minimum medium and a DME/F12 medium (1:1) supplemented with 10% calf serum, glutamine (2 mM), gentamycin (50 μg/mL), glucose (15 mM) and 20 mM KCl, with the pH brought to 7-7.4 using NaHCO3. Planchettes containing cultures were placed in a CO2— incubator at 37° C. and 100% humidity. Cytosine arabinoside 10-20 μL was added on the second to third day of cultivation. After 6-7 days of cultivation 1 mg/mL glucose was added to the medium, or the medium was exchanged, depending on the following experiment. The cultured hippocampus neurons were placed in a 0.4 mL working chamber. The working solution had the following composition (mM): NaCl 150.0, KCl 5.0, CaCl2 2.6, MgSO4×7H2O 2.0, HEPES 10.0, glucose 15.0, pH 7.36.
# Transmembrane currents produced by application of NMDA were registered by the patch clamp electrophysiological method in the whole cell configuration. Application of substances was done by the method of rapid superfusion. Currents were registered with the aid of borosilicate microelectrodes (resistance […]) filled with the following composition (mM): KCl 100.0, EGTA 11.0, CaCl2 1.0, MgCl2 1.0, HEPES 10.0, ATP 5.0 pH 7.2. An EPC-9 instrument (HEKA, Germany) was used for registration. Currents were recorded on the hard disk of a Pentium-IV PC using the pulse program, which is also purchased from HEKA. The results were analyzed with the aid of the Pulsefit program (HEKA).
"IC50 (cultured rat hippocampus neurons, range and average printed, dihydrochloride, read-out: IC50 of blocking effect on currents caused by application of NMDA) [µM]",SMILES,Change of the blocking effect of MK-801 on NMDA-induced currents after preliminary application of the substance,Blockade of NMDA-induced currents (%) (dimebon alone at 10 μM),"Blockade of NMDA-induced currents (%) by MK-801 after preliminary perfusion with dimebon (preliminary perfusion with dimebon 10 μM, then MK-801) [%]"
–,"N[C@H](CCCP(=O)(O)O)C(=O)O [D-AP5, D-2-amino-5-phosphonovaleric acid]",did not decrease the blocking effect of MK-801,–,–
7.7 ± 1.9,"Cc1ccc2c(c1)c1c(n2CCc2ccc(C)nc2)CCN(C)C1 [Dimebon, 2,8-dimethyl-5-[2-(6-methylpyridyl-3)ethyl]-2,3,4,5-tetrahydro-1H-pyrido[4,3-b]indole dihydrochloride]",capable of reducing the blocking effect of MK-801,By 50-70% at 10 μM,40±18
